Test results as given in article PMC13075795, “A dual-threshold system relying on multiple c-di-GMP metabolic enzymes controls cell fate of a cyanobacterium” (PLOS Biology, 2026).

T1: CdgS (Nostoc sp. PCC 7120 = FACHB-418, UniProt A0ACD7RTW6)
T1 construct: gene all2874; full-length; pHTwinStrep vector, C-terminal twin Strep-tag kept; expressed in E. coli BL21(DE3); Strep-Tactin and SEC
T1 sequence (A0ACD7RTW6 1-330): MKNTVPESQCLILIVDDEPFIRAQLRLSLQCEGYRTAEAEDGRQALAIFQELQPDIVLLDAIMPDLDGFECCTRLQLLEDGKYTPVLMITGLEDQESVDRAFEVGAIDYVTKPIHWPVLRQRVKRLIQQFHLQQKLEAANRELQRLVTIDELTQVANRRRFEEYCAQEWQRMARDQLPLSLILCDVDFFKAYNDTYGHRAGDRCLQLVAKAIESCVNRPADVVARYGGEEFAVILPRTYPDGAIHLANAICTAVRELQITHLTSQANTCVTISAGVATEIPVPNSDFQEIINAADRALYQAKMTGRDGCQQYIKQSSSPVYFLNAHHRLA

B1: CdgS (Nostoc sp. PCC 7120 = FACHB-418) (protein)
chain: T1 sequence (A0ACD7RTW6 1-330)
notes: full-length; pHTwinStrep vector, C-terminal twin Strep-tag kept; expressed in E. coli BL21(DE3); Strep-Tactin and SEC
B2: Alr1219-ΔCT (All1219-ΔCT) (Nostoc sp. PCC 7120 = FACHB-418) (protein)
chain: HMQEELKRSKEFLQQVIDTIADPIFVKNEQHQWIVLNKAYCRFIGYPESFLVEKSDVDFFPKHEADVFRQQDELVFETQRPQENEEEFTDAYGKTHLIATKRSLHKDAAGNFFLVGVIRDITQRKIMEEELKRTAAELFRSNNELKLKEDHLRYLAYHDALTGLPNRKYFAEQLYESINWAKDNNLSLGLLFIDLDGFKQVNDSLGHEMGDRLLVVIAQRLSNSLRASDTVARLGGDEFTVILQAIPNVQVAAKVAEKILANITEPIVLNGCTAKVSVSIGISIYPETSLDPDTLLKKADAAMYRAKHLGKNRFELADRVNTEF
notes: C-terminal twin Strep-tag kept; expressed in E. coli BL21(DE3)
B3: Alr3599 (Nostoc sp. PCC 7120 = FACHB-418) (protein)
chain: MSGISPYSLSKKPPVILVADDDKTIRMLLREAMEKEGYRVVEVTDGKQCLDAYEAVKPDIVLLDAMMPVMDGFTCCKQLLQIARNNLITALANLDTDSGLGNTVISRLWERTPILMITSLNDAESVDRAFEAGATDYITKPIHWAVLRQRLRRLLQQAQVYKQLEAANMALQHLANVDGLTGLANRRRFDNYLNTQWINLVQEGAPLSLILCDIDYFKFYNDQYGHPTGDICLQKVGAVLSYKAQKHQDLVARYGGEEFAVVMPYTHAKGAIYVAHAIQTSVRDLQIAHDKSAVSQHITLSMGVATITPTWESSPSDLIAAADKALYKAKESGRNRICQWEDSQ
notes: as for B1

Columns and labels:
[1] = target: T2, Alr1219-ΔCT (All1219-ΔCT) (Nostoc sp. PCC 7120 = FACHB-418, UniProt A0ACD7RQN0); experiment: HPLC diguanylate cyclase inhibition assay (GTP consumption); type: biochemical
T2 construct: C-terminal twin Strep-tag kept; expressed in E. coli BL21(DE3)

CdgS = target: T1, CdgS; experiment: as above; type: biochemical
Alr3599 = target: T3, Alr3599 (Nostoc sp. PCC 7120 = FACHB-418, UniProt A0ACD7RVV5); experiment: as above; type: biochemical
T3 construct: full-length; pHTwinStrep vector, C-terminal twin Strep-tag kept; expressed in E. coli BL21(DE3); Strep-Tactin and SEC

[2] = substrate: Nc1nc2c(ncn2[C@@H]2O[C@H](COP(=O)(O)OP(=O)(O)OP(=O)(O)O)[C@@H](O)[C@H]2O)c(=O)[nH]1; experiment: HPLC diguanylate cyclase assay, Michaelis-Menten fit; type: biochemical, Nostoc sp. PCC 7120 = FACHB-418; conditions: 3.13-200 μM GTP, 1 μM protein, 10 min, 25 °C, 50 mM Tris-HCl pH 8.0, 0.2 M NaCl, 10 mM MgCl2

Molecule	Ki [1]	Ki (CdgS)	Ki (Alr3599)	Km [2]
Nc1nc2c(ncn2[C@@H]2O[C@@H]3CO[P@](=O)(O)O[C@H]4[C@@H](O)[C@H](n5cnc6c(=O)[nH]c(N)nc65)O[C@@H]4CO[P@](=O)(O)O[C@H]3[C@H]2O)c(=O)[nH]1 [c-di-GMP]	3.7 µM	2.42 µM	16 µM	
B1				26.6 ± 3.5 µM
B2				20.3 ± 12.4 µM
B3				84.2 ± 30.1 µM
